From patent US11707448B2, “Combination therapies for the treatment of cancer” (Eisai R&D Management Co., Ltd., priority 2014, dated 2023) come the findings set out here.

The subject of this assay is PAN02 pancreatic tumors. Briefly: PAN02 pancreatic tumor model, ER-886046 with gemcitabine and radiation. Type of assay: in vivo, mice. Here is the method: FIG. 10. […] Antitumor activity of gemcitabine plus local radiation (RT) administered to PAN02 pancreatic tumors in C57BL/6 mice with or without ER-886046. Gemcitabine and RT dosing: a single 40 mg/kg dose of gemcitabine and a single 6 Gy dose of RT, was administered on day 27 post tumor cell injection. ER-8806046 was administered daily in an amount of 150 mg/kg from day 27 post tumor cell injection until the end of the study.
FIG. 11A to FIG. 11B. Additional experiments with combination therapy of ER-886046 and anti-metabolite chemotherapy with radiation compared to anti-metabolite chemotherapy with radiation alone. Panel shown in FIG. 11A) Gemcitabine and RT dosing: a single 40 mg/kg dose of gemcitabine and a single 6 Gy dose of RT, was administered on day 19 post tumor cell injection. ER-8806046 was administered daily in an amount of 150 mg/kg from day 19 post tumor cell injection until the end of the study. Panel shown in FIG. 11B) Gemcitabine and RT dosing: a single 40 mg/kg dose of gemcitabine and a single 6 Gy dose of RT, was administered on day 12 post tumor cell injection. ER-8806046 was administered daily in an amount of 150 mg/kg from day 12 post tumor cell injection until the end of the study. Average tumor sizes of mouse pancreatic PAN02 tumor-bearing mice that received vehicles, ER-886046, gemcitabine (gem) plus radiation (RT), ER-886046 plus RT, or ER-886046 plus gemcitabine and RT at indicated dosages and schedules. A and B represent each independent study. N=8-10 per group. NS, not significant; *, p<0.05; **, p<0.01; ***, p<0.001; and ****, p<0.0001, two-way ANOVA test.
Animal studies; In vitro cultured cancer cells were harvested and suspended in 100 μl of cold HBSS buffer at cell concentrations of 1.0×10^6 cells/ml (CT-26 cells) or of 1.0×10^7 cells/ml (PAN02 cells) and subcutaneously (sc) injected into the mice using a 26 g syringe on day 0. At the dates as indicated in the figures, the mice were randomized based on the tumor size followed by treatments with local radiation alone, gemcitabine alone (intravenous administration), ER-886046 alone (oral administration), or combinations of these treatments. […] The tumor sizes were measured twice a week by a digital caliber (Mitutoyo Corp), and the volume was calculated using the formula (1×w^2)/2=mm^3, where 1 and w refer to the larger and smaller perpendicular dimensions collected at each measurement. Graphs of group tumor sizes (mean±SEM) versus time were plotted using software GraphPad Prism 6 (Lake Forest, Calif.). Two way ANOVA was used for statistical calculation among the groups. N=8-10 in each treatment group.

`C[C@H](NC(=O)c1c(C(F)F)nn(C)c1Oc1cccc(C(F)(F)F)c1)c1ccc(C(=O)O)cc1` [ER-886046]: the “anti-tumor activity, ER-886046 plus RT vs triple combination” value (ER-886046 150 mg/kg daily + RT 6 Gy, first study (FIG. 10)) was “no significant difference in the anti-tumor activity”. For the setting “ER-886046 150 mg/kg daily from day 27 + gemcitabine 40 mg/kg + RT 6 Gy day 27, first study (FIG. 10)”, the “anti-tumor activity, triple combination” value is on record as “best anti-tumor activity among the treatment groups”. Further, the “anti-tumor activity, ER-886046 alone” value (ER-886046 150 mg/kg daily from day 27, first study (FIG. 10)) is reported as “more efficacious than RT plus gemcitabine”. In addition, for the setting “triple combination ER-886046 + gemcitabine + RT, day 36 after tumor cell inoculation (FIG. 11B)”, the tumor-bearing animals cured entry is listed as “five of eight”.
